Assay results from PubChem BioAssay AID248 (DTP/NCI, 2004).
Values joined by “and” are separate entries in the source; they are usually repeats but may differ in a detail not shown here. Identical values can stand only once. Toxic doses and inconclusive results are not listed. Rule as the data show it: active = T/C of 150% or more; inactive = T/C below 125%. Peptide text beside a SMILES is read from it. * marks the point of attachment. Bn = c1ccc(C*)cc1

System: L1210 leukemia ip in BDF1 mice, survival T/C
Assay: NCI In Vivo Anticancer Drug Screen. Data for tumor model L1210 Leukemia (intraperitoneal) in B6D2F1 (BDF1) mice
Conditions: endpoint: mean survival time, higher = longer survival
In short: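 Antitumor effect is assessed in tumor-bearing animals. Survival in the compound arm is compared with a vehicle-dosed control arm and expressed as their quotient.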

[1] = dose: 100.0 mg/kg/injection, schedule: Q01DX009 (ip), vehicle: saline
[2] = dose: 100.0 mg/kg/injection, schedule: Q04DX003 (ip), vehicle: Klucel (hydroxypropylcellulose) (HPC)
[3] = dose: 200.0 mg/kg/injection, schedule: Q04DX003 (ip), vehicle: Klucel (hydroxypropylcellulose) (HPC)
[4] = dose: 400.0 mg/kg/injection, schedule: Q04DX003 (ip), vehicle: Klucel (hydroxypropylcellulose) (HPC)

Measured: T/C

CN=C(NC)c1ccc(NC(=O)Nc2ccc(C)c(NC(=O)Nc3ccc(C(=NC)NC)cc3)c2)cc1
inactive: dose: 4.5 mg/kg/injection, schedule: Q01DX Z (ip), vehicle: water 98 % of control | dose: 9.0 mg/kg/injection, schedule: Q01DX Z (ip), vehicle: water 98 % of control | dose: 18.0 mg/kg/injection, schedule: Q01DX Z (ip), vehicle: water 98 % of control

Cn1nc(C(=O)O)c(=O)[nH]c1=O
inactive: dose: 100.0 mg/kg/injection, schedule: Q01DX Z (ip), vehicle: methylcellulose (MC) 97 % of control

O=C1CCc2cc(Cl)ccc2O1
inactive: dose: 50.0 mg/kg/injection, schedule: Q01DX001 (ip), vehicle: carboxymethylcellulose (CMC) 103 % of control | dose: 100.0 mg/kg/injection, schedule: Q01DX001 (ip), vehicle: carboxymethylcellulose (CMC) 100 % of control | dose: 200.0 mg/kg/injection, schedule: Q01DX001 (ip), vehicle: carboxymethylcellulose (CMC) 103 % of control | dose: 400.0 mg/kg/injection, schedule: Q01DX001 (ip), vehicle: carboxymethylcellulose (CMC) 94 % of control

O=C(COc1ccc(Cl)cc1Cl)Nc1ccccc1[N+](=O)[O-]
inactive: dose: 100.0 mg/kg/injection, schedule: Q04DX002 (ip), vehicle: saline 92 % of control | dose: 200.0 mg/kg/injection, schedule: Q04DX002 (ip), vehicle: saline 92 % of control | dose: 400.0 mg/kg/injection, schedule: Q04DX002 (ip), vehicle: saline 92 % of control

COc1cc(C(=O)NC(=S)Nc2ccc3ccccc3c2)cc(OC)c1OC
inactive: dose: 100.0 mg/kg/injection, schedule: Q04DX002 (ip), vehicle: saline with Tween-80 91 % of control | dose: 200.0 mg/kg/injection, schedule: Q04DX002 (ip), vehicle: saline with Tween-80 97 % of control | dose: 400.0 mg/kg/injection, schedule: Q04DX002 (ip), vehicle: saline with Tween-80 91 % of control

COc1cccc(CCCC(=O)O)c1OC
inactive: dose: 100.0 mg/kg/injection, schedule: Q04DX003 (ip), vehicle: gum acacia 99 % of control | dose: 200.0 mg/kg/injection, schedule: Q04DX003 (ip), vehicle: gum acacia 94 % of control | dose: 400.0 mg/kg/injection, schedule: Q04DX003 (ip), vehicle: gum acacia 96 % of control

c1ccc(C[Si](Cc2ccccc2)Cc2ccccc2)cc1
inactive: dose: 100.0 mg/kg/injection, schedule: Q01DX001 (ip), vehicle: saline 105 % of control | [1] 88 % of control | dose: 200.0 mg/kg/injection, schedule: Q01DX001 (ip), vehicle: saline 90 % of control | dose: 200.0 mg/kg/injection, schedule: Q01DX009 (ip), vehicle: saline 88 % of control | dose: 400.0 mg/kg/injection, schedule: Q01DX001 (ip), vehicle: saline 104 % of control | dose: 400.0 mg/kg/injection, schedule: Q01DX009 (ip), vehicle: saline 90 % of control

COC(=O)C(CC(C)C)NC(=O)C(N)Cc1ccc(OCc2ccccc2)cc1 (stereo unspecified) (H-Tyr(Bn)-Leu-OMe; configuration not given here)
inactive: dose: 6.25 mg/kg/injection, schedule: Q01DX009 (ip), vehicle: saline with Tween-80 111 % of control | dose: 12.5 mg/kg/injection, schedule: Q01DX009 (ip), vehicle: saline with Tween-80 111 % of control | dose: 25.0 mg/kg/injection, schedule: Q01DX009 (ip), vehicle: saline with Tween-80 106 % of control and 90 % of control | dose: 25.0 mg/kg/injection, schedule: Q04DX003 (ip), vehicle: saline with Tween-80 98 % of control | dose: 50.0 mg/kg/injection, schedule: Q04DX003 (ip), vehicle: saline with Tween-80 104 % of control | dose: 100.0 mg/kg/injection, schedule: Q04DX003 (ip), vehicle: saline with Tween-80 96 % of control and 102 % of control

CCCCCCCCCCCCCCCCCC[n+]1cccc(C(=O)N2CCOCC2)c1
inactive: dose: 2.0 mg/kg/injection, schedule: Q01DX009 (ip), vehicle: Klucel (hydroxypropylcellulose) (HPC) 97 % of control | dose: 4.0 mg/kg/injection, schedule: Q01DX009 (ip), vehicle: Klucel (hydroxypropylcellulose) (HPC) 110 % of control | dose: 8.0 mg/kg/injection, schedule: Q01DX009 (ip), vehicle: Klucel (hydroxypropylcellulose) (HPC) 98 % of control | dose: 12.5 mg/kg/injection, schedule: Q04DX003 (ip), vehicle: Klucel (hydroxypropylcellulose) (HPC) 88 % of control | dose: 16.0 mg/kg/injection, schedule: Q01DX009 (ip), vehicle: Klucel (hydroxypropylcellulose) (HPC) 104 % of control | dose: 25.0 mg/kg/injection, schedule: Q04DX003 (ip), vehicle: Klucel (hydroxypropylcellulose) (HPC) 96 % of control | dose: 32.0 mg/kg/injection, schedule: Q01DX009 (ip), vehicle: Klucel (hydroxypropylcellulose) (HPC) 90 % of control | dose: 50.0 mg/kg/injection, schedule: Q04DX003 (ip), vehicle: Klucel (hydroxypropylcellulose) (HPC) 93 % of control | [2] 92 % of control

CNC(=O)Nc1cccc2c(=O)[nH][nH]c(=O)c12
inactive: dose: 100.0 mg/kg/injection, schedule: Q01DX009 (ip), vehicle: Klucel (hydroxypropylcellulose) (HPC) 114 % of control | [2] 97 % of control | dose: 200.0 mg/kg/injection, schedule: Q01DX009 (ip), vehicle: Klucel (hydroxypropylcellulose) (HPC) 100 % of control | [3] 108 % of control | dose: 400.0 mg/kg/injection, schedule: Q01DX009 (ip), vehicle: Klucel (hydroxypropylcellulose) (HPC) 86 % of control | [4] 91 % of control

[N-]=[N+]=Nc1ccc(Cl)cc1C(=O)c1ccccc1
inactive: dose: 25.0 mg/kg/injection, schedule: Q01DX009 (ip), vehicle: saline 120 % of control | dose: 25.0 mg/kg/injection, schedule: Q04DX003 (ip), vehicle: saline 98 % of control | dose: 50.0 mg/kg/injection, schedule: Q01DX009 (ip), vehicle: saline 109 % of control | dose: 50.0 mg/kg/injection, schedule: Q04DX003 (ip), vehicle: saline 104 % of control | [1] 111 % of control | dose: 100.0 mg/kg/injection, schedule: Q04DX003 (ip), vehicle: saline 102 % of control and 113 % of control

O=C(Cl)C(c1ccccc1)C1(C(Cl)(Cl)Cl)CCCCC1 (stereo unspecified)
inactive: dose: 55.0 mg/kg/injection, schedule: Q01DX Z (ip), vehicle: methylcellulose (MC) 110 % of control | dose: 83.0 mg/kg/injection, schedule: Q01DX Z (ip), vehicle: methylcellulose (MC) 104 % of control | dose: 125.0 mg/kg/injection, schedule: Q01DX Z (ip), vehicle: methylcellulose (MC) 98 % of control

Cc1cc(Br)ccc1OCC(=O)O
inactive: [2] 96 % of control | [3] 93 % of control | [4] 98 % of control
